Measurements as given in US20110039721A1, “METHOD FOR PREDICTION ABOUT CARCINOGENICITY OF SUBSTANCE IN RODENT” (Chemicals Evaluation and Research Institute, priority 2007, published 2011).

Tested on: mRNA expressed from the genes (A) to (D) in rat liver
Test: Behavior of genes (mRNA expression level, oligo-DNA microarray) in rat liver after 28-day oral administration
Type: in vivo
Conditions: for Behavior of gene caused by administration of chemical substance, Gene No. 4846 / Behavior of gene caused by administration of chemical substance, Gene No. 2026 / Behavior of gene caused by administration of chemical substance, Gene No. 4218 / Behavior of gene caused by administration of chemical substance, Gene No. 6182 / Behavior of gene caused by administration of chemical substance, Gene No. 5600: gene group (A); for Behavior of gene caused by administration of chemical substance, Gene No. 4846: Unigene No. Rn.144554; for Behavior of gene caused by administration of chemical substance, Gene No. 2026 / Behavior of gene caused by administration of chemical substance, Gene No. 4218: Unigene No. Rn.167075; for Behavior of gene caused by administration of chemical substance, Gene No. 6182: Unigene No. Rn.5834; for Behavior of gene caused by administration of chemical substance, Gene No. 5600: Unigene No. Rn.9836; for Behavior of gene caused by administration of chemical substance, Gene No. 1494 / Behavior of gene caused by administration of chemical substance, Gene No. 2045 / Behavior of gene caused by administration of chemical substance, Gene No. 2203: gene group (B); for Behavior of gene caused by administration of chemical substance, Gene No. 1494: Unigene No. Rn.1430; for Behavior of gene caused by administration of chemical substance, Gene No. 2045: Unigene No. Rn.19329; for Behavior of gene caused by administration of chemical substance, Gene No. 2203: Unigene No. Rn.21240; for Behavior of gene caused by administration of chemical substance, Gene No. 533 / Behavior of gene caused by administration of chemical substance, Gene No. 725 / Behavior of gene caused by administration of chemical substance, Gene No. 1163 / Behavior of gene caused by administration of chemical substance, Gene No. 4973 / Behavior of gene caused by administration of chemical substance, Gene No. 4095 / Behavior of gene caused by administration of chemical substance, Gene No. 1334 / Behavior of gene caused by administration of chemical substance, Gene No. 6620 / Behavior of gene caused by administration of chemical substance, Gene No. 6303 / Behavior of gene caused by administration of chemical substance, Gene No. 5878 / Behavior of gene caused by administration of chemical substance, Gene No. 1131 / Behavior of gene caused by administration of chemical substance, Gene No. 1562 / Behavior of gene caused by administration of chemical substance, Gene No. 1741 / Behavior of gene caused by administration of chemical substance, Gene No. 893 / Behavior of gene caused by administration of chemical substance, Gene No. 6026 / Behavior of gene caused by administration of chemical substance, Gene No. 154 / Behavior of gene caused by administration of chemical substance, Gene No. 1993 / Behavior of gene caused by administration of chemical substance, Gene No. 813 / Behavior of gene caused by administration of chemical substance, Gene No. 2494 / Behavior of gene caused by administration of chemical substance, Gene No. 2546 / Behavior of gene caused by administration of chemical substance, Gene No. 3776 / Behavior of gene caused by administration of chemical substance, Gene No. 3929 / Behavior of gene caused by administration of chemical substance, Gene No. 1119 / Behavior of gene caused by administration of chemical substance, Gene No. 6742 / Behavior of gene caused by administration of chemical substance, Gene No. 5634: gene group (C); for Behavior of gene caused by administration of chemical substance, Gene No. 533: Unigene No. Rn.106184; for Behavior of gene caused by administration of chemical substance, Gene No. 725: Unigene No. Rn.108075; for Behavior of gene caused by administration of chemical substance, Gene No. 1163: Unigene No. Rn.11766; for Behavior of gene caused by administration of chemical substance, Gene No. 4973: Unigene No. Rn.118529; for Behavior of gene caused by administration of chemical substance, Gene No. 4095: Unigene No. Rn.119024; for Behavior of gene caused by administration of chemical substance, Gene No. 1334 / Behavior of gene caused by administration of chemical substance, Gene No. 6620: Unigene No. Rn.120914; for Behavior of gene caused by administration of chemical substance, Gene No. 6303: Unigene No. Rn.123063; for Behavior of gene caused by administration of chemical substance, Gene No. 5878: Unigene No. Rn.143213; for Behavior of gene caused by administration of chemical substance, Gene No. 1131: Unigene No. Rn.144946; for Behavior of gene caused by administration of chemical substance, Gene No. 1562: Unigene No. Rn.14744; for Behavior of gene caused by administration of chemical substance, Gene No. 1741: Unigene No. Rn.1647; for Behavior of gene caused by administration of chemical substance, Gene No. 893: Unigene No. Rn.164817; for Behavior of gene caused by administration of chemical substance, Gene No. 6026: Unigene No. Rn.167685; for Behavior of gene caused by administration of chemical substance, Gene No. 154: Unigene No. Rn.185941; for Behavior of gene caused by administration of chemical substance, Gene No. 1993: Unigene No. Rn.18728; for Behavior of gene caused by administration of chemical substance, Gene No. 813: Unigene No. Rn.201760; for Behavior of gene caused by administration of chemical substance, Gene No. 2494: Unigene No. Rn.23969; for Behavior of gene caused by administration of chemical substance, Gene No. 2546: Unigene No. Rn.24561; for Behavior of gene caused by administration of chemical substance, Gene No. 3776: Unigene No. Rn.43232; for Behavior of gene caused by administration of chemical substance, Gene No. 3929: Unigene No. Rn.4620; for Behavior of gene caused by administration of chemical substance, Gene No. 1119: Unigene No. Rn.9757; for Behavior of gene caused by administration of chemical substance, Gene No. 6742: Unigene No. Rn.9779; for Behavior of gene caused by administration of chemical substance, Gene No. 5634: Unigene No. Rn.9862; for Behavior of gene caused by administration of chemical substance, Gene No. 5726: gene group (D), Unigene No. Rn.9939
Description: A test solution was prepared by dissolving each of the carcinogens and the non-carcinogens shown in Tables 2 to 6 in the corresponding solvent shown in Tables 2 to 6. Each of the thus prepared test solutions and the solvents used for the preparation was administered by oral gavage to rats in each group. As the rats, male rats (F344 SPF rats) at 5 weeks of age obtained from Charles River Laboratories Japan, Inc. were used. The animals were divided into groups, each containing four individuals. The volume of the solvent administered to the vehicle control group was set to the same volume as that of the test solution administered to the carcinogen administration group or the non-carcinogen administration group. The administration of the test solution or the solvent was performed once daily for 28 days. Apiece was excised from the liver of each of the rats after a lapse of 28 days from the initiation of the administration, and the total RNA was extracted and purified.
The expression level of mRNA was compared between each of the chemical substance administration groups and the corresponding vehicle control group, and genes that satisfy the requirements described in (A) to (D) were selected, respectively.
The case where the expression level of mRNA in the carcinogen administration group or the non-carcinogen administration group is 1.5 times or more or 1/1.5 or less of the expression level of the corresponding mRNA expressed in the control group was determined to be significant. In this connection, the determination as to whether or not the change is significant was performed by taking into consideration the direction of increase or decrease in the expression level. In the case where the direction of increase or decrease is different as compared with the case where another carcinogen was administered, the change was determined to be not significant.

Structure (SMILES) | Behavior of gene caused by administration of chemical substance, Gene No. 4846 | Behavior of gene caused by administration of chemical substance, Gene No. 2026 | Behavior of gene caused by administration of chemical substance, Gene No. 4218 | Behavior of gene caused by administration of chemical substance, Gene No. 6182 | Behavior of gene caused by administration of chemical substance, Gene No. 5600 | Behavior of gene caused by administration of chemical substance, Gene No. 1494 | Behavior of gene caused by administration of chemical substance, Gene No. 2045 | Behavior of gene caused by administration of chemical substance, Gene No. 2203 | Behavior of gene caused by administration of chemical substance, Gene No. 533 | Behavior of gene caused by administration of chemical substance, Gene No. 725 | Behavior of gene caused by administration of chemical substance, Gene No. 1163 | Behavior of gene caused by administration of chemical substance, Gene No. 4973 | Behavior of gene caused by administration of chemical substance, Gene No. 4095 | Behavior of gene caused by administration of chemical substance, Gene No. 1334 | Behavior of gene caused by administration of chemical substance, Gene No. 6620 | Behavior of gene caused by administration of chemical substance, Gene No. 6303 | Behavior of gene caused by administration of chemical substance, Gene No. 5878 | Behavior of gene caused by administration of chemical substance, Gene No. 1131 | Behavior of gene caused by administration of chemical substance, Gene No. 1562 | Behavior of gene caused by administration of chemical substance, Gene No. 1741 | also measured
CC(=O)Nc1ccc(O)cc1 [TS031, Acetaminophen] | − | + | − | − | − | + | − | − | + | − | − | − | − | − | − | − | − | − | − | + | Behavior of gene caused by administration of chemical substance, Gene No. 893: −; Behavior of gene caused by administration of chemical substance, Gene No. 6026: −; Behavior of gene caused by administration of chemical substance, Gene No. 154: −; Behavior of gene caused by administration of chemical substance, Gene No. 1993: −; Behavior of gene caused by administration of chemical substance, Gene No. 813: −; Behavior of gene caused by administration of chemical substance, Gene No. 2494: −; Behavior of gene caused by administration of chemical substance, Gene No. 2546: +; Behavior of gene caused by administration of chemical substance, Gene No. 3776: −; Behavior of gene caused by administration of chemical substance, Gene No. 3929: −; Behavior of gene caused by administration of chemical substance, Gene No. 1119: −; Behavior of gene caused by administration of chemical substance, Gene No. 6742: +; Behavior of gene caused by administration of chemical substance, Gene No. 5634: −; Behavior of gene caused by administration of chemical substance, Gene No. 5726: −
C[C@H](CCC(=O)O)[C@H]1CC[C@H]2[C@@H]3CC[C@@H]4C[C@H](O)CC[C@]4(C)[C@H]3CC[C@]12C [TS040, Lithocholic acid] | − | − | − | − | − | − | − | − | − | − | − | − | − | − | − | − | − | − | − | − | Behavior of gene caused by administration of chemical substance, Gene No. 893: −; Behavior of gene caused by administration of chemical substance, Gene No. 6026: −; Behavior of gene caused by administration of chemical substance, Gene No. 154: −; Behavior of gene caused by administration of chemical substance, Gene No. 1993: −; Behavior of gene caused by administration of chemical substance, Gene No. 813: −; Behavior of gene caused by administration of chemical substance, Gene No. 2494: −; Behavior of gene caused by administration of chemical substance, Gene No. 2546: −; Behavior of gene caused by administration of chemical substance, Gene No. 3776: −; Behavior of gene caused by administration of chemical substance, Gene No. 3929: −; Behavior of gene caused by administration of chemical substance, Gene No. 1119: −; Behavior of gene caused by administration of chemical substance, Gene No. 6742: +; Behavior of gene caused by administration of chemical substance, Gene No. 5634: −; Behavior of gene caused by administration of chemical substance, Gene No. 5726: −
